# Reference: US5055594A, “Fluorogenic trypotophanase substrates” (Becton, Dickinson and Company, priority 1990, dated 1991)
# How the values were obtained:
# tryptophanase = test: Reaction of serine-AMC-carbamate with tryptophanase (fluorescence increase); type: biochemical; conditions: 1.19×10^-6 M substrate, pH 8.2, 100 μL of 5.0 mq/mL tryptophanase; excitation 365 nm
# Protocol: To a 1.19×10^-6 M solution of serine-AMC-carbamate dissolved in 100 mM potassium phosphate buffer, pH 8.2 was added 100 μL of a 5.0 mq/mL solution of tryptophanase. Fluorescence increase was measured at 440 nm, with excitation at 365 nm. Starting fluorescence of the serine-AMC-carbamate solution was 26 relative units. After addition of the enzyme, fluorescence at 440 nM increased at a rate of 97 units/minute. […] Fluorescence increase in the absence of enzyme was negligible.
# Citrobacter freundii = test: Determination of the indole reaction of microorganisms (substrate on cellulose disks, AMC release); type: cell-based; conditions: for FLUORESCENCE INCREASE (ng AMC/min): 3×10^8 cfu/ml, phosphate buffer pH 8.4 with toluene, ex 365 nm, em 440 nm
# Protocol: (§1) Aliquots of 20 microliters of a 0.5% solution of the substrate of Example I dissolved in dimethylsulfoxide were added to cellulose disks (catalog no. 740-E, Schleicher and Schuell, Inc. Keene, N.H.). The DMSO was removed by vacuum dessication. The dried disks were placed in the wells of a black polystyrene microwell tray. Four of the disks were each inoculated with 25 microliters of a suspension containing 3×10^8 colony forming units per ml of the known indole positive microorganisms Escherichia coli and Citrobacter diversus and the known indole negative microorganisms Klebsiella pneumoniae and Citrobacter freundii. The suspensions were made in phosphate buffer, pH 8.4, containing toluene at a concentration of 2 drops per 5 ml of buffer to permeabilize the bacteria. Four disks were inoculated with buffer alone to serve as controls. The disks were excited at 365 nm using a xenon lamp and fluorescence was measured at 1 minute intervals for 10 minutes at a wavelength of 440 nm using a Fluoroskan II (Flow Laboratories, McLean, Va. 22102) reader. Results from the four tubes for each organism were averaged and are expressed in the Table as nanograms of free AMC released per minute.
# Citrobacter diversus = test: as above; type: cell-based; conditions: for FLUORESCENCE INCREASE (ng AMC/min): 3×10^8 cfu/ml, phosphate buffer pH 8.4 with toluene, ex 365 nm, em 440 nm
# Protocol: as §1
# Klebsiella pneumoniae = test: as above; type: cell-based
# Protocol: as §1
# Escherichia coli = test: as above; type: cell-based; conditions: for FLUORESCENCE INCREASE (ng AMC/min): 3×10^8 cfu/ml, phosphate buffer pH 8.4 with toluene, ex 365 nm, em 440 nm
# Protocol: as §1
structure (smiles),measurement,setting,value
Cc1cc(=O)oc2cc(NC(=O)OC[C@H](N)C(=O)O)ccc12 [serine-AMC-carbamate],Rate of fluorescence increase at 440 nM after addition of the enzyme,tryptophanase,97 units/minute
same,Fluorescence increase compared with the control,"Citrobacter freundii; C. freundii (indole negative), versus buffer control",about the same fluorescence increase as the control
same,FLUORESCENCE INCREASE (ng AMC/min),Citrobacter freundii; C. freundii strain 2027,0.8 ng AMC/min
same,FLUORESCENCE INCREASE (ng AMC/min),Citrobacter freundii; C. freundii strain 2058,0.45 ng AMC/min
same,Fluorescence increase compared with the control,"Citrobacter diversus; C. diversus (indole positive), versus buffer control",much larger fluorescence increases
same,FLUORESCENCE INCREASE (ng AMC/min),Citrobacter diversus; C. diversus strain 404,5.35 ng AMC/min
same,FLUORESCENCE INCREASE (ng AMC/min),Citrobacter diversus; C. diversus strain 2075,4.4 ng AMC/min
same,Fluorescence increase compared with the control,"Klebsiella pneumoniae; K. pneumoniae (indole negative), versus buffer control",about the same fluorescence increase as the control
same,FLUORESCENCE INCREASE (ng AMC/min),"Klebsiella pneumoniae; K. pneumoniae strain 6N3696N1, 3×10^8 cfu/ml, phosphate buffer pH 8.4 with toluene, ex 365 nm, em 440 nm",0.5 ng AMC/min
same,Fluorescence increase compared with the control,"Escherichia coli; E. coli (indole positive), versus buffer control",much larger fluorescence increases
same,FLUORESCENCE INCREASE (ng AMC/min),Escherichia coli; E. coli strain 1W9901N1,1.53 ng AMC/min
same,FLUORESCENCE INCREASE (ng AMC/min),Escherichia coli; E. coli strain 2W0803N1,1.85 ng AMC/min
same,FLUORESCENCE INCREASE (ng AMC/min),Escherichia coli; E. coli strain 4H8162N1,1.6 ng AMC/min
same,FLUORESCENCE INCREASE (ng AMC/min),Escherichia coli; E. coli strain 7W0563N1,1.7 ng AMC/min
